Read-outs that look alike come from different tables or passages of the source.
Key:
HCV replicon cells = experiment: HCV replicon FRET / luciferase assay (96-well plates); type: cell-based; conditions: Hepatitis C virus, HCV replicon, read-out: EC50
Excerpt: FRET Assay Preparation. To perform the HCV FRET screening assay, 96-well cell culture plates were used. The FRET peptide (Anaspec, Inc.) (Taliani et al., Anal. Biochem. 1996, 240, 60-67) contains a fluorescence donor, EDANS, near one end of the peptide and an acceptor, DABCYL, near the other end. The fluorescence of the peptide is quenched by […] resonance energy transfer (RET) between the donor and the acceptor, but as the NS3 protease cleaves the peptide the products are released from RET quenching and the fluorescence of the donor becomes apparent. The assay reagent was made as follows: 5× cell Luciferase cell culture lysis reagent from Promega (#E153A) diluted to 1× with dH2O, NaCl added to 150 mM final, the FRET peptide diluted to 20 μM final from a 2 mM stock.
To prepare plates, HCV replicon cells, with or without a Renilla luciferase reporter gene, were trypsinized and placed into each well of a 96-well plate with titrated test compounds added in columns 3 through 12; columns 1 and 2 contained a control compound (HCV protease inhibitor), and the bottom row contained cells without compound. The plates were then placed in a CO2 incubator at 37° C.
Assays. Subsequent to addition of the test compounds described above (FRET Assay Preparation), at various times the plate was removed and Alamar blue solution (Trek Diagnostics, #00-100) was added per well as a measure of cellular toxicity. After reading in a Cytoflour 4000 instrument (PE Biosystems), plates were rinsed with PBS and then used for FRET assay by the addition of 30 ul of the FRET peptide assay reagent described above (FRET Assay Preparation) per well. The plate was then placed into the Cytoflour 4000 instrument which had been set to 340 excite/490 emission, automatic mode for 20 cycles and the plate read in a kinetic mode. Typically, the signal to noise using an endpoint analysis after the reads was at least three-fold. Alternatively, after Alamar blue reading, plates were rinsed with PBS, 50 ul of DMEM (high glucose) without phenol red was added and plates were then used for luciferase assay using the Promega Dual-Glo Luciferase Assay System.
Compound analysis was determined by quantification of the relative HCV replicon inhibition and the relative cytotoxicity values. To calculate cytoxicity values, the average Alamar Blue fluorescence signals from the control wells were set as 100% non-toxic. The individual signals in each of the compound test wells were then divided by the average control signal and multiplied by 100% to determine […]. To calculate the HCV replicon inhibition values, an average background value was obtained from the two wells containing the highest amount of HCV protease inhibitor at the end of the assay period. These numbers were similar to those obtained from naïve Huh-7 cells.
The background numbers were then subtracted from the average signal obtained from the control wells and this number was used as 100% activity. The individual signals in each of the compound test wells were then divided by the averaged control values after background subtraction and multiplied by 100% to determine percent activity. EC50 values for a protease inhibitor titration were calculated as the concentration which caused a 50% reduction in FRET or luciferase activity. The two numbers generated for the compound plate, percent cytoxicity and percent activity were used to determine compounds of interest for further analysis.

[1] = target: T1, HCV NS5B RdRp genotype 1b (Hepatitis C virus genotype 1b, UniProt Q9WMX2); experiment: Standard HCV NS5B RdRp enzyme assay; type: biochemical; conditions: HCV NS5B RdRp genotype 1b, read-out: IC50
T1 construct: The protein was expressed with an 18 amino acid C-terminal truncation to enhance the solubility; made in house; host or cells: E. coli BL21(DE3), pET21a vector
T1 sequence (Q9WMX2 2420-2992): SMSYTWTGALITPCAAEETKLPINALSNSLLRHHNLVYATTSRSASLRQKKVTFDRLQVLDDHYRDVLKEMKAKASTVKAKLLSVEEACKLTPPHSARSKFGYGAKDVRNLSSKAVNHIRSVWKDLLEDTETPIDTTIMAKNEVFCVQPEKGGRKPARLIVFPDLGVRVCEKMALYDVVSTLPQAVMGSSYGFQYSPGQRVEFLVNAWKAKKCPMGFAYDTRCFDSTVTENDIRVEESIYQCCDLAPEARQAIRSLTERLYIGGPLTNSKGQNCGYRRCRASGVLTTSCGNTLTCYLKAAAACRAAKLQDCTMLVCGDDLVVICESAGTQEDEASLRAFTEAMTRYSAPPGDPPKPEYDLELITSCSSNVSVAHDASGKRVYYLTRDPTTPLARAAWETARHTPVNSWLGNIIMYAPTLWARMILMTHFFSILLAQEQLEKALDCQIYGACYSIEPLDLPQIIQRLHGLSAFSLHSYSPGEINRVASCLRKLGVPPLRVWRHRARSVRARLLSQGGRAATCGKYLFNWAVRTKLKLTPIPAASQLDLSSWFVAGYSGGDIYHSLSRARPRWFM
Experimental: HCV NS5B RdRp cloning, expression, and purification. The cDNA encoding the NS5B protein of HCV, genotype 1b, was cloned into the pET21a expression vector. The protein was expressed with an 18 amino acid C-terminal truncation to enhance the solubility. The E. coli competent cell line BL21(DE3) was used for expression of the protein. Cultures were grown at 37° C. for ˜4 hours until the cultures reached an optical density of 2.0 at 600 nm. The cultures were cooled to 20° C. and induced with 1 mM IPTG. Fresh ampicillin was added to a final concentration of 50 μg/ml and the cells were grown overnight at 20° C.
Cell pellets (3 L) were lysed for purification to yield 15-24 mgs of purified NS5B. The lysis buffer consisted of 20 mM Tris-HCl, pH 7.4, 500 mM NaCl, 0.5% triton X-100, 1 mM DTT, 1 mM EDTA, 20% glycerol, 0.5 mg/ml lysozyme, 10 mM MgCl2, 15 ug/ml deoxyribonuclease I, and Complete TM protease inhibitor tablets (Roche). After addition of the lysis buffer, frozen cell pellets were resuspended using a tissue homogenizer. To reduce the viscosity of the sample, aliquots of the lysate were sonicated on ice using a microtip attached to a Branson sonicator. The sonicated lysate was centrifuged at 100,000×g for 1 hr at 4° C. and filtered through a 0.2 μm filter unit (Corning).
The protein was purified using three sequential chromatography steps: Heparin sepharose CL-6B, polyU sepharose 4B, and Hitrap SP sepharose (Pharmacia). The chromatography buffers were identical to the lysis buffer but contained no lysozyme, deoxyribonuclease I, MgC12 or protease inhibitor and the NaCl concentration of the buffer was adjusted according to the requirements for charging the protein onto the column. Each column was eluted with a NaCl gradient which varied in length from 5-50 column volumes depending on the column type. After the final chromatography step, the resulting purity of the enzyme is >90% based on SDS-PAGE analysis. The enzyme was aliquoted and stored at −80° C.
Standard HCV NS5B RdRp enzyme assay. HCV RdRp genotype 1b assays were run in a final volume of 60 μl in 96 well plates (Costar 3912). The assay buffer composed of 20 mM Hepes, pH 7.5, 2.5 mM KCl, 2.5 mM MgCl2, 1 mM DTT, 1.6 U RNAse inhibitor (Promega N2515), 0.1 mg/ml BSA (Promega R3961), and 2% glycerol. All compounds were serially diluted (3-fold) in DMSO and diluted further in water such that the final concentration of DMSO in the assay was 2%. HCV RdRp genotype 1b enzyme was used at a final concentration of 28 nM. A polyA template was used at 6 nM, and a biotinylated oligo-dT12 primer was used at 180 nM final concentration. Template was obtained commercially (Amersham 27-4110). Biotinylated primer was prepared by Sigma Genosys. 3H-UTP was used at 0.6 μCi (0.29 μM total UTP). Reactions were initiated by the addition of enzyme, incubated at 30° C. for 60 min, and stopped by adding 25 μl of 50 mM EDTA containing SPA beads (4 μg/μl, Amersham RPNQ 0007). Plates were read on a Packard Top Count NXT after >1 hr incubation at room temperature.
IC50 values for compounds were determined using seven different [I]. IC50 values were calculated from the inhibition using the formula y=A+((B−A)/(1+((C/x)^D))).

SMILES	EC50 (HCV replicon cells; Table 1a) [nM]	IC50 ([1]; Table 1a) [nM]	IC50 ([1]; Table 1b) [nM]	also measured
CNC(=O)c1c(-c2ccc(F)cc2)oc2cc(N(CCO)S(C)(=O)=O)c(-c3cccc(C(=O)NC(C)(C)c4ccccc4)c3)cc12	< 250	< 250	–	–
CNC(=O)c1c(-c2ccc(F)cc2)oc2ccc(-c3cccc(C(=O)NC(C)(C)C(=O)O)c3)cc12	> 10000	250 to 1000	–	–
CNC(=O)c1c(-c2ccc(F)cc2)oc2ccc(-c3ccc(C(=O)N(C)Cc4cccnc4)cc3)cc12 [drawing 286]	> 10000	1000 to 10000	–	–
CNC(=O)c1c(-c2ccc(F)cc2)oc2ccc(-c3cc(OC)cc(C(=O)NCC(C)C)c3)cc12	–	–	250 to 1000	EC50 (HCV replicon cells; Table 1b): 250 to 1000 nM
CNC(=O)c1c(-c2ccc(F)cc2)oc2ccc(-c3cccc(C(=O)NC(C)C)c3)cc12	< 250	< 250	–	–
CNC(=O)c1c(-c2ccc(F)cc2)oc2ccc(-c3ccc(F)c(C(=O)NC(C)(C)C)c3)cc12	–	–	< 250	EC50 (HCV replicon cells; Table 1b): < 250 nM
CNC(=O)c1c(-c2ccc(F)cc2)oc2ccc(-c3cccc(C(=O)NC(C)(C)Cc4ccc(F)cc4)c3)cc12	< 250	250 to 1000	–	–
CNC(=O)c1c(-c2ccc(F)cc2)oc2ccc(-c3cccc(C(=O)N[C@H](C)c4ccc(F)cc4)c3)cc12	< 250	< 250	–	–
CNC(=O)c1c(-c2ccc(F)cc2)oc2ccc(-c3cc(OC)ncc3F)cc12	> 620	> 10000	–	–
CNC(=O)c1c(-c2ccc(F)cc2)oc2ccc(-c3cc(C(=O)NC4(c5nnc(-c6ccc(OC)cc6)[nH]5)CC4)ccc3C)cc12	–	–	< 250	EC50 (HCV replicon cells; Table 1b): < 250 nM
CNC(=O)c1c(-c2ccc(F)cc2)oc2ccc(-c3cc(C(=O)NCC(C)C)ccc3OCCC(C)C)cc12	–	–	> 10000	EC50 (HCV replicon cells; Table 1b): 1000 to 10000 nM
CNC(=O)c1c(-c2ccc(F)cc2)oc2ccc(-c3cc(C)c(Br)cc3C)cc12	> 3700	> 10000	–	–
CNC(=O)c1c(-c2ccc(F)cc2)oc2ccc(-c3cccc(C(=O)NC4CCCCC4)c3)cc12	< 250	< 250	–	–
CNC(=O)c1c(-c2ccc(F)cc2)oc2ccc(-c3ccc(-c4cccnc4OC)c(C(=O)NCC(C)C)c3)cc12	–	–	< 250	EC50 (HCV replicon cells; Table 1b): < 250 nM
CNC(=O)c1c(-c2ccc(F)cc2)oc2ccc(-c3cccc(C(=O)NCCOC)c3)cc12 [drawing 182]	1000 to 10000	1000 to 10000	–	–
CNC(=O)c1c(-c2ccc(F)cc2)oc2ccc(-c3ccc(-c4ccsc4)c(C(=O)NCC(C)C)c3)cc12	–	–	< 250	–
CCOC(=O)c1[nH]c(-c2cccc(-c3ccc4oc(-c5ccc(F)cc5)c(C(=O)NC)c4c3)c2)nc1C	–	–	< 250	–

SMILES	EC50 (HCV replicon cells; Table 1a) [nM]	IC50 ([1]; Table 1a) [nM]	IC50 ([1]; Table 1b) [nM]	also measured
CNC(=O)c1c(-c2ccc(F)cc2)oc2ccc(-c3ccc(-c4ccnc(C)c4)c(C(=O)NCC(C)C)c3)cc12	–	–	< 250	–
CNC(=O)c1c(-c2ccc(F)cc2)oc2ccc(-c3ccc(-c4c[nH]c(=O)[nH]c4=O)c(C(=O)NCC(C)C)c3)cc12	–	–	< 250	–
CNC(=O)c1c(-c2ccc(F)cc2)oc2ccc(-c3ccc(-c4cccc(N)c4)c(C(=O)NCC(C)C)c3)cc12	–	–	< 250	–
CNC(=O)c1c(-c2ccc(F)cc2)oc2ccc(-c3ccc(-c4cncc(OC)c4)c(C(=O)NCC(C)C)c3)cc12	–	–	250 to 1000	–
CNC(=O)c1c(-c2ccc(F)cc2)oc2ccc(-c3cc(C(=O)NC4(c5cccc(C)n5)CC4)c(OC)cc3C)cc12	–	–	–	IC50 ([1]; Table 1d (class symbols)): 1 to 250 nM
CNC(=O)c1c(-c2ccc(F)cc2)oc2cc(NS(C)(=O)=O)c(/C=C/C(=O)NC(C)(C)c3ccccc3)cc12	–	–	1000 to 10000	–
CNC(=O)c1c(-c2ccc(F)cc2)oc2ccc(-c3ccc(-c4cncnc4)c(C(=O)NCC(C)C)c3)cc12	–	–	< 250	–
CNC(=O)c1c(-c2ccc(F)cc2)oc2ccc(-c3cc(C(=O)NC4(C(=O)OC)CC4)c(O)cc3Cl)cc12	–	–	250 to 1000	–
CNC(=O)c1c(-c2ccc(F)cc2)oc2ccc(-c3ccc(-c4cnc(N)nc4)c(C(=O)NCC(C)C)c3)cc12	–	–	< 250	–
CNC(=O)c1c(-c2ccc(F)cc2)oc2cc(N(CCO)S(C)(=O)=O)c(/C=C/C(=O)NC(C)(C)c3ccccc3)cc12	–	–	< 250	–
CNC(=O)c1c(-c2ccc(F)cc2)oc2ccc(-c3cc(C(=O)NC4(C(=O)O)CC4)c(O)cc3Cl)cc12	–	–	250 to 1000	–
CNC(=O)c1c(-c2ccc(F)cc2)oc2ccc(-c3ccc(-c4cncc(C)c4)c(C(=O)NCC(C)C)c3)cc12	–	–	250 to 1000	–
CNC(=O)c1c(-c2ccc(F)cc2)oc2ccc(-c3cc(C(=O)NC4(c5ccccn5)CC4)c(OC4CCOCC4)cc3C)cc12	–	–	–	EC50 (HCV replicon cells; 24 h, Table 1d (class symbols)): 1 to 250 nM
CNC(=O)c1c(-c2ccc(F)cc2)oc2ccc(-c3cc(C(=O)NC4(c5ccccn5)CC4)c(OCc4ccccn4)cc3C)cc12	–	–	–	EC50 (HCV replicon cells; 24 h, Table 1d (class symbols)): 1 to 250 nM
CNC(=O)c1c(-c2ccc(F)cc2)oc2ccc(-c3cc(C(=O)O)ccc3OC(F)(F)F)cc12	–	–	–	EC50 (HCV replicon cells; Table 1b): > 10000 nM
CNC(=O)c1c(-c2ccc(F)cc2)oc2ccc(-c3cc(C(=O)NC4(c5ccccn5)CC4)c(OCCC(C)C)cc3C)cc12	–	–	–	EC50 (HCV replicon cells; 24 h, Table 1d (class symbols)): 1 to 250 nM
